Experimental findings from US20140243400A1, “COMPOSITIONS COMPRISING CITRIC ACID AND MALIC ACID AND METHODS AND USES THEREOF” (University of Alaska Anchorage, priority 2013, published 2014) are described below.

Data set [1] relates to neutral sphingomyelinase (nSMase). The experiment in a line: nSMase-mediated ceramide release in TNF-α-treated neuroblastomas. The data set is classed as cell-based. The note with it: neuroblastomas treated with TNF-α in conjunction with citrate or malate at 0.5 μg/ml. How it is done:
Neuroblastomas were not treated (NT) or treated with tumor necrosis factor α (TNF-α), either alone or in conjunction with citrate or malate at 0.5 μg/ml.
Ceramides and ceramide metabolites are important intracellular signaling molecules which influence inflammation, proliferative and apoptotic processes, neurodegeneration, and insulin sensitivity. Elevated ceramides are associated with neurodegenerative disorders including Alzheimer's and Parkinson's disease as well as normal aging.

Data set [2] has as its system SH-SY5Y human neuroblastoma cells. The experiment in a line: Intracellular GSH after malate pretreatment and peroxide insult. The data set is classed as cell-based. Conditions: 0.5 μg/mL malate for 1 hour prior to peroxide insult. How it is done: GSH is widely considered the cornerstone of endogenous redox defense. Intracellular concentrations of total GSH clearly decrease in response to oxidative insult, confirming GSH is actively consumed as part of the endogenous redox defense response in human neurons, specifically to produce regenerate antioxidative enzymes. […] All treatments were performed in triplicate. Following treatment, neurons were rinsed with PBS and evaluated for total GSH (excluding GSSG) via Promega GSH-Glo Glutathione Assay. The assay is based on the conversion of a lucifin derivative into lucifierin in the presence of GSH. […] Cells were treated with 0.5 μg/mL malate in serum free DMEM for 1 hour prior to peroxide insult.

For data set [3] the test system is unchanged. Kind of data set: Intracellular malate after malate pretreatment and peroxide insult. The data set is classed as cell-based. How it is done:
Intracellular malate decreases 20% in the first 30 minutes following peroxide treatment and continues to slowly decrease over the rest of the time course. SH-SY5Y human neuroblastoma cells were grown to 90% confluency on 100 mm tissue culture dishes in 10% FBS supplemented DMEM, serum starved for 12 hours, and treated with 100 μM H2O2 in serum free DMEM for either 0, 15, 30, 45, 60, or 90 minutes. All treatments were performed in triplicate. Following treatment, neurons were rinsed with PBS, harvested and evaluated for total […] via abcam malate assay kit (ab83391). […] Cells were treated with 0.5 μg/mL malate in serum free DMEM for 1 hour prior to peroxide insult. Malate supplementation increased intracellular malate by nearly 50%.

Data set [4] can be described thus: Tolerability of oral malate in aged rats. It counts as in vivo. The note with it: 24 aged rats, 200 mg/Kg orally, voluntary consumption in water.
Data set [5] relates to Fischer F344 inbred rats. The experiment in a line: Spatial memory, rewarded alternation in T-maze, aged rats. The data set is classed as in vivo. Conditions: for T-maze alternation: 200 mg/Kg in water, 6 weeks supplementation; for spatial memory vs control rats: aged F344 rats, 200 mg/Kg, T-maze. How it is done: Spatial memory was measured by alternation in a T-maze. […] Both aged groups supplemented with malic acid performed equivalently to non-impaired rats, at 85% correct alternation, or better.
24 male Fischer F344 inbred rats were evaluated at 10 months and 23 months of age. Half were provided supplemental dietary malate. Following 6 weeks supplementation, spatial memory was evaluated using a rewarded alternation procedure in a T-maze apparatus (10 trials per subject). Healthy, non-impaired, rats alternate at 85% while hippocampectomized rats incapable of encoding spatial memories alternate at chance, 50%. […] The 23 month old, control, rats were severely impaired, hardly scoring better than chance, at 57% alternation. 23 month old malate-supplemented rats alternated at 85%, a score equivalent to a young, not impaired rat. (FIG. 10).

“Also recorded” adds a separate entry of the source. Bounds are passed on as bounds.

Consider `O=C(O)CC(O)(CC(=O)O)C(=O)O` [citrate, citric acid], for which the entries for the “nSMase-mediated ceramide release / nSMase activation” value in data set [1] and in data set [1] (listed as Citrate) were “able to curb nSMase activation” and “significantly decrease”, respectively.
As to `O=C(O)CC(O)C(=O)O` (stereo not shown) [malate, malic acid], in data set [2], the “intracellular GSH after peroxide insult” value is “higher levels of GSH than non-treated and non-insulted cells; also recorded: prevent critical depletion of GSH”. The “intracellular GSH vs non-supplemented cells” value in data set [2] (0-60 minutes post peroxide) is recorded as “significantly higher levels of GSH than non-supplemented cells; also recorded: increase intracellular pools of GSH”. Moreover, the “intracellular malate after peroxide insult” value in data set [3] (0.5 μg/mL malate for 1 hour prior to peroxide insult) is “higher levels than non-treated and non-insulted cells; also recorded: prevent critical depletion of malate”. In addition, the “increase of intracellular malate” value in data set [3] (0.5 μg/mL malate in serum free DMEM for 1 hour) was approximately 50%. For the same molecule, the “nSMase-mediated ceramide release / nSMase activation” value in data set [1] is “significantly decrease; also recorded: able to curb nSMase activation”. Further, the ill effects observed entry in data set [4] is “no ill effects were observed”. The values for the T-maze alternation in data set [5] (10 month old F344 rats) and in data set [5] (23 month old F344 rats) were 92.5% and 85%, respectively. In addition, the “spatial memory vs control rats” value in data set [5] was “statistically significant improvement in spatial memory”; in data set [5] (listed as malic acid) it was “significantly improves performance in spatial memory”. The T-maze correct alternation in data set [5] (both aged groups (10 and 23 months), oral 200 mg/Kg) was not below 85%.
